From patent US10668051B2, “Modulators of calcium release-activated calcium channel” (Rhizen Pharmaceuticals SA, priority 2009, dated 2020)
Structures can show the parent of a compound that is named as a salt.

Tests used:
Assay type in all cases: cell-based
[1] = test system: IL-2; assay: Inhibition of cytokine release in Human Whole Blood: IL-2; settings: Con A + PMA, 20 h, ELISA, read-out: IC 50 Human Whole Blood IL-2
Method: (§1) 2. In Vitro Inhibition of Cytokine Release in Jurkat Cells, Human Whole Blood and Peripheral Blood Mononuclear Cells (PBMC).
(§2) Inhibition of cytokine IL-2, IL-4, IL-5 and TNF α was determined as described below. • a. Inhibition of IL-2 in Jurkat cells: Cells were incubated with desired concentrations of the inhibitor for 15 min. Cytokine release was induced by the addition of Concanavalin A (25 μg/ml)+Phorbol Myristate Acetate (50 ng/ml) for IL-2 & TNFα or with Phytohemagglutinin ([…]) for IL-4 & IL-5 and incubated at 37° C. in an atmosphere containing […]. Supernatant was collected after 20 h (IL-2 & TNFα) or 48 h (IL-4 & IL-5) for estimation of cytokines by ELISA. Data were analysed using GraphPad Prism. IC50 values for each compound were determined based on the percent inhibition due to the test compound compared to the control. • b. Inhibition of cytokine release in Human Whole Blood (HWB): Freshly collected HWB was diluted with RPMI medium (1:4.5) and added to a 96-well plate. Wells were incubated with desired concentrations of the inhibitor for 15 min. Cytokine release was induced by the addition of Concanavalin A (25 μg/ml)+Phorbol Myristate Acetate (50 ng/ml) for IL-2 & TNFα or with Phytohemagglutinin (5 μg/ml) for IL-4 & IL-5 and incubated at 37° C. in an atmosphere containing […]. Supernatant was collected after 20 h (IL-2 & TNFα) or 48 h (IL-4 & IL-5) for estimation of cytokines by ELISA. Data were analysed using GraphPad Prism. IC50 values for each compound were determined based on the percent inhibition due to the test compound compared to the control. • c. Inhibition of cytokine release in PBMC: PBMC from freshly collected HWB were isolated by density gradient using Histopaque and seeded in a 96-well plate. Cells were incubated with desired concentrations of the inhibitor for 15 min. Cytokine release was induced by the addition of Concanavalin A (25 μg/ml)+Phorbol Myristate Acetate (50 ng/ml) for IL-2 & TNFα or with Phytohemagglutinin (5 μg/ml) for IL-4 & IL-5 and incubated at 37° C. in an atmosphere containing […]. Supernatant was collected after 20 h (IL-2 & TNFα) or 48 h (IL-4 & IL-5) for estimation of cytokines by ELISA. Data were analysed using GraphPad Prism. IC50 values for each compound were determined based on the percent inhibition due to the test compound compared to the control.

[2] = target: CRAC channels (Homo sapiens (Human), UniProt Q96D31); assay: In-vitro CRAC channel inhibition assay in Jurkat cells (thapsigargin-induced calcium influx)
Sequence of CRAC channels (Q96D31 whole entry): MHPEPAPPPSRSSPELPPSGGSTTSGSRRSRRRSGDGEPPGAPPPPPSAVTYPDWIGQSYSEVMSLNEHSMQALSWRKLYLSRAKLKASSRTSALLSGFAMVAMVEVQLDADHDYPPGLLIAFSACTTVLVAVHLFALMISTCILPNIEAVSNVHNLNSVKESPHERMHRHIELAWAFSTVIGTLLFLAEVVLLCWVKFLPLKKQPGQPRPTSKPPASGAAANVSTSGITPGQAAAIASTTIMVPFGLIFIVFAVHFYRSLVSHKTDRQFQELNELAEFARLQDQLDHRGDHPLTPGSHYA
Method in brief: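 Jurkat cells given test compounds in Ca2+/Mg2+-free Hanks buffer for 15 min, then thapsigargin (1 μM final) for 15 min to deplete ER stores. IC50 from percent inhibition of thapsigargin-induced Ca2+ influx.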

[3] = test system: NCI-H460 cancer cell line; assay: In-vitro cell proliferation assay in NCI-H460 cancer cell line (MTT); settings: Homo sapiens, 48 h; for IC50: read-out: NCI-H460 Cell line assay G1 50 nM
Method: 1C. In-Vitro Cell Proliferation Assay in NCI-H460 Cancer Cell Line (Anticancer Activity)
Growth inhibition assays were carried out using 10% FBS supplemented media. Cells were seeded at a concentration of 5000 cells/well in a 96-well plate. Test compound at a concentration range from 0.01 to 10000 nM were added after 24 h. Growth was assessed using the 3-[4,5-dimethylthiazol-2-yl]-2,5-diphenyltetrazolium bromide (MTT) dye reduction test at 0 h (prior to the addition of the test compound) and 48 h after the addition of test compound. Absorbance was read on a Fluostar Optima (BMG Labtech, Germany) at a wave length of 450 nm. Data were analysed using GraphPad Prism. IC-50 for each compound was determined based on the % inhibition due to the test compound compared to the control.
For methods of cell proliferation assay, see, for example, Mosmann. T., Journal of Immunological Methods, 65(1-2), 55-63, (1983).

[4] = test system: IL-2; assay: Inhibition of cytokine release in PBMC: IL-2; settings: Homo sapiens, Con A + PMA, 20 h, ELISA, read-out: IC 50 PBMC IL-2
Method: as §1, §2

With `Cc1oncc1C(=O)Nc1ccc(-n2nc(C(F)(F)F)cc2C2CC2)cc1` [Example 56, N-{4-[5-cyclopropyl-3-(trifluoromethyl)-1H-pyrazol-1-yl]phenyl}-5-methylisoxazole-4-carboxamide] the IC50 [1] was 0.0784 µM and the inhibition at 1 µM [2] was 100%.

In the case of `O=C(Nc1ccc(-n2nc(C3CC3)cc2C2CC2)cc1)C1(c2ccccc2)CC1` [Example 21, N-[4-(3,5-dicyclopropyl-1H-pyrazol-1-yl)phenyl]-1-phenylcyclopropanecarboxamide], the inhibition at 1 µM [2] is reported as 78.4% and the inhibition at 10 µM [3] is reported as 41%.

With `Cc1nnsc1C(=O)Nc1ccc(-n2nc(C(F)(F)F)cc2C2CC2)c(F)c1` [Example 82, N-{4-[5-cyclopropyl-3-(trifluoromethyl)-1H-pyrazol-1-yl]-3-fluorophenyl}-4-methyl-1,2,3-thiadiazole-5-carboxamide] the IC50 [4] was 0.0246 µM, the IC50 [1] was 0.0382 µM and the inhibition at 1 µM [2] was 100%.

With `O=C(Nc1ccc(-n2nc(C(F)(F)F)cc2C2CC2)c(F)c1)c1ccncc1F` [Example 91, N-{4-[5-cyclopropyl-3-(trifluoromethyl)-1H-pyrazol-1-yl]-3-fluorophenyl}-3-fluoroisonicotinamide] the inhibition at 1 µM [2] was 100%, the inhibition at 10 µM [3] was 92.7% and the IC50 [3] was 1.36 µM.

In the case of `O=C(Nc1ccc(-n2nc(C(F)(F)F)cc2C2CC2)c(F)c1)c1c(Cl)cncc1Cl` [Example 92, 3,5-dichloro-N-{4-[5-cyclopropyl-3-(trifluoromethyl)-1H-pyrazol-1-yl]-3-fluorophenyl}isonicotinamide], the inhibition at 1 µM [2] is reported as 95.8% and the inhibition at 10 µM [3] is reported as 100%.

Work on `O=C(Nc1ccc(-n2nc(C(F)(F)F)cc2C2CC2)c(F)c1)c1ccncc1` [Example 90, N-{4-[5-cyclopropyl-3-(trifluoromethyl)-1H-pyrazol-1-yl]-3-fluorophenyl}isonicotinamide hydrochloride] yielded an inhibition at 1 µM [2] of 100%, an inhibition at 10 µM [3] of 90.7% and an IC50 [3] of 0.305 µM.

`O=C(Nc1ccc(-n2nc(C(F)(F)F)cc2C2CC2)cc1)c1c(Cl)cncc1Cl` [Example 49, 3,5-dichloro-N-{4-[5-cyclopropyl-3-(trifluoromethyl)-1H-pyrazol-1-yl]phenyl}isonicotinamide] gave an IC50 [1] of 0.199 µM and an inhibition at 1 µM [2] of 100%.

For `O=C(Nc1ccc(-n2nc(C3CC3)cc2C2CC2)nc1)c1ccncc1F` [Example 48, N-[6-(3,5-dicyclopropyl-1H-pyrazol-1-yl)pyridin-3-yl]-3-fluoroisonicotinamide], the inhibition at 1 µM [2] was 12.3%.

`O=C(Nc1ccc(-n2nc(C(F)(F)F)cc2C2CC2)nc1)c1cccnc1` [Example 111, N-{6-[5-cyclopropyl-3-(trifluoromethyl)-1H-pyrazol-1-yl]pyridin-3-yl}nicotinamide hydrochloride] showed an IC50 [1] of 0.0828 µM and an inhibition at 1 µM [2] of 100%.

`O=C(Cc1ccccn1)Nc1ccc(-n2nc(C3CC3)cc2C2CC2)cc1` [Example 22, N-[4-(3,5-dicyclopropyl-1H-pyrazol-1-yl)phenyl]-2-(pyridin-2-yl)acetamide hydrochloride] showed an inhibition at 1 µM [2] of 73.4%.

`O=C(Cc1cccnc1)Nc1ccc(-n2nc(C3CC3)cc2C2CC2)cc1` [Example 23, N-[4-(3,5-dicyclopropyl-1H-pyrazol-1-yl)phenyl]-2-(pyridin-3-yl)acetamide hydrochloride] gave an inhibition at 1 µM [2] of 53.8%.

For `Cc1ncsc1NC(=O)c1ccc(-n2nc(C(F)(F)F)cc2C2CC2)cc1` [Example 78, 4-[5-cyclopropyl-3-(trifluoromethyl)-1H-pyrazol-1-yl]-N-(4-methylthiazol-5-yl)benzamide], the IC50 [4] was 0.149 µM, the IC50 [1] was 0.0347 µM and the inhibition at 1 µM [2] was 100%.

`Cc1ccccc1C(=O)Nc1ccc(-n2nc(C3CC3)cc2C2CC2)cc1` [Example 7, N-[4-(3,5-dicyclopropyl-1H-pyrazol-1-yl)phenyl]-2-methylbenzamide] was tested, and the inhibition at 1 µM [2] was 99%.

`Cc1ncncc1C(=O)Nc1cc(F)c(-n2nc(C(F)(F)F)cc2C2CC2)c(F)c1` [Example 130, N-{4-[5-cyclopropyl-3-(trifluoromethyl)-1H-pyrazol-1-yl]-3,5-difluorophenyl}-4-methylpyrimidine-5-carboxamide] showed an inhibition at 1 µM [2] of 5.31%.

`CSc1ccc(Cl)c(C(=O)Nc2ccc(-n3nc(C4CC4)cc3C3CC3)cc2)c1` [Example 12, 2-chloro-N-[4-(3,5-dicyclopropyl-1H-pyrazol-1-yl)phenyl]-5-(methylthio)benzamide] was tested, and the inhibition at 1 µM [2] was 90.8%.

Compound `O=C(Nc1ccc(-n2nc(C3CC3)cc2C2CC2)nc1)c1cccc(F)c1F` [Example 44, N-[6-(3,5-dicyclopropyl-1H-pyrazol-1-yl)pyridin-3-yl]-2,3-difluorobenzamide hydrochloride] has an inhibition at 1 µM [2] of 63.4%.

For `Cc1nnsc1C(=O)Nc1ccc(-n2nc(C(F)(F)F)cc2C2CC2)nc1` [Example 101, N-{6-[5-cyclopropyl-3-(trifluoromethyl)-1H-pyrazol-1-yl]pyridin-3-yl}-4-methyl-1,2,3-thiadiazole-5-carboxamide], the inhibition at 1 µM [2] was 93%.

Compound `Cc1nc(C)c(C(=O)Nc2ccc(-n3nc(C4CC4)cc3C3CC3)cc2)s1` [Example 3, N-[4-(3,5-dicyclopropyl-1H-pyrazol-1-yl)phenyl]-2,4-dimethylthiazole-5-carboxamide] has an inhibition at 1 µM [2] of 72.2%.

Work on `Cc1oncc1C(=O)Nc1ccc(-n2nc(C3CC3)cc2C2CC2)cc1` [Example 4, N-[4-(3,5-dicyclopropyl-1H-pyrazol-1-yl)phenyl]-5-methylisoxazole-4-carboxamide] yielded an inhibition at 1 µM [2] of 100%.

Compound `Cc1nnsc1C(=O)Nc1ccc(-n2nc(C3CC3)cc2C2CC2)nc1` [Example 38, N-[6-(3,5-dicyclopropyl-1H-pyrazol-1-yl)pyridin-3-yl]-4-methyl-1,2,3-thiadiazole-5-carboxamide hydrochloride] has an inhibition at 1 µM [2] of 52.7%.

`Cc1noc(C)c1C(=O)Nc1ccc(-n2nc(C3CC3)cc2C2CC2)c(F)c1` [Example 30, N-[4-(3,5-dicyclopropyl-1H-pyrazol-1-yl)-3-fluorophenyl]-3,5-dimethylisoxazole-4-carboxamide] showed an inhibition at 1 µM [2] of 35.1%.

Compound `Cc1ncsc1C(=O)Nc1ccc(-n2nc(C(F)(F)F)cc2C2CC2)nc1` [Example 102, N-{6-[5-cyclopropyl-3-(trifluoromethyl)-1H-pyrazol-1-yl]pyridin-3-yl}-4-methylthiazole-5-carboxamide hydrochloride] has an inhibition at 1 µM [2] of 34.9%.

For `CS(=O)(=O)c1ccc(Cl)c(C(=O)Nc2ccc(-n3nc(C4CC4)cc3C3CC3)cc2)c1` [Example 13, 2-chloro-N-[4-(3,5-dicyclopropyl-1H-pyrazol-1-yl)phenyl)-5-(methylsulfonyl)benzamide], the inhibition at 1 µM [2] was 37.2%.

In the case of `O=C(Nc1cnc(-n2nc(C(F)(F)F)cc2C2CC2)nc1)c1c(F)cccc1F` [Example 124, N-{2-[5-cyclopropyl-3-(trifluoromethyl)-1H-pyrazol-1-yl]pyrimidin-5-yl}-2,6-difluorobenzamide], the inhibition at 1 µM [2] is reported as 86.2%.
